Measurements reported in PubChem BioAssay AID434987 (Southern Research Specialized Biocontainment Screening …, 2010).
The source made the active and inactive calls. No rule for the calls is given here.

Test system: M. tuberculosis H37Rv growth inhibition with meropenem
Test: dose response, H37Rv, with and without meropenem (AID 434987);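 also: growth over 7 days at 37 °C before Alamar Blue read on day 9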
[1] = M. tuberculosis H37Rv growth inhibition, measured here: IC50 without meropenem
[2] = M. tuberculosis H37Rv growth inhibition, measured here: IC90 without meropenem
[3] = measured here: IC90 with meropenem

Row | Structure (SMILES) | IC50 | IC50 [1] [µM] | IC90 [2] [µM] | IC90 [3] [µM]
1 | COc1ccc(-c2csc(Nc3ncccc3C)n2)cc1OC | 61.3 µM (inactive) | > 100 | > 100 | > 100
2 | O=C(c1cnn2c(C(F)(F)F)cc(-c3cccs3)nc12)N1CCN(C(c2ccccc2)c2ccccc2)CC1 | 26.6 µM (inactive) | 32.5 | > 100 | > 100
3 | Cc1cccc(C)c1OCC(=O)NNC(=O)CNC(=O)c1ccc(OC(F)F)cc1 | 88.3 µM (inactive) | > 100 | > 100 | 98.1
4 | CCOc1cc(/C=N\NC(=O)c2ccc(NC(=O)C(C)(C)C)cc2)ccc1OC(=O)c1ccc(C)cc1 | > 100 µM (inactive) | > 100 | > 100 | > 100
5 | CCOc1ccc(S(=O)(=O)n2nnc3ccccc32)cc1C(C)C | > 100 µM (inactive) | > 100 | > 100 | > 100
6 | CCN(CC)C(=O)C1CCCN(c2ccc([N+](=O)[O-])cc2/C=N/NC(=O)c2cccc([N+](=O)[O-])c2)C1 (configuration not stated) | > 100 µM (inactive) | > 100 | > 100 | > 100
7 | O=c1c2c(nc3n1CCCCC3)sc1c(O)c(Br)ccc12 | 48 µM (inactive) | > 100 | > 100 | > 50
8 | CCCn1nnnc1NC(=O)COc1ccc(Cl)cc1C | 12.4 µM (inactive) | 24.3 | 28.6 | 42.9
9 | COCCCn1c(=O)/c(=C\c2cccc(OC)c2OC)s/c1=C(/C#N)C(=O)Nc1ccc(C(=O)O)cc1 | 5 µM | 14.6 | 31.4 | 24.6
10 | CN(C)/N=C/c1ccc(/C=N/NC(N)=S)o1 | 15.2 µM | 90.8 | > 100 | 43.3
11 | CC(=O)c1sc(N/N=C\c2ccc(N(C)C)cc2)nc1C | 49.9 µM (inactive) | > 100 | > 100 | > 100
12 | O=C(CSc1nc2ncc(Cl)cc2[nH]1)Nc1cccc(F)c1 | > 100 µM (inactive) | > 100 | > 100 | > 100
13 | COc1cc2cnc(-c3ccsc3)c(-c3ccc(F)cc3)c2cc1OC | > 100 µM (inactive) | > 100 | > 100 | > 100
14 | CSc1ncccc1C(=O)Nc1nc2ccc(Oc3ccccc3)cc2s1 | > 100 µM (inactive) | > 100 | > 100 | > 100
15 | CCCCNC(=O)c1onc(CSc2ccc(OC)cc2)c1C(=O)O | 23.9 µM (inactive) | 46.4 | 53.1 | 27.2
16 | O=C(Nc1c2c(nc3ccccc13)CCCC2)c1ccccc1F | 42.6 µM (inactive) | 74 | > 100 | > 50
17 | C/C(=N\NC(=O)c1cc2c(s1)CCC(C)C2)c1cccnc1 (configuration not stated) | > 100 µM (inactive) | > 100 | > 100 | > 100
18 | CCCOc1ccccc1NC(=O)/C=C/C(N)=O | 13.4 µM (inactive) | 26.8 | 33.8 | 27.7
19 | CC(C)OCc1c(C(=O)Nc2nccs2)oc2ccccc12 | 97.9 µM (inactive) | > 100 | > 100 | > 100
20 | COC(=O)c1ccc(-c2cc(C(=O)O)c3cc4c(cc3n2)OCCO4)cc1 | > 100 µM (inactive) | > 100 | > 100 | > 100

Row | Structure (SMILES) | IC50 | IC50 [1] [µM] | IC90 [2] [µM] | IC90 [3] [µM]
21 | N#Cc1ccc(NC(=O)COC(=O)C2=COCCO2)cc1 | > 100 µM (inactive) | > 100 | > 100 | > 100
22 | O=C(CN1CCC(O)(c2ccc3c(c2)OCO3)CC1)OC1CCCCC1 | 12.8 µM | 38.5 | > 100 | 35.3
23 | O=C(CSc1nnc(-c2ccncc2)o1)c1cccc([N+](=O)[O-])c1 | 31.6 µM (inactive) | 46.9 | > 100 | 45.4
24 | Cc1ccc(S(=O)(=O)NCCCCCC(=O)Nc2nccs2)cc1 | > 100 µM (inactive) | > 100 | > 100 | > 100
25 | Cc1cc(/C=N/NC(=O)CC#N)c(C)n1-c1ccc([N+](=O)[O-])cc1 | 10.2 µM | > 100 | > 100 | > 100
26 | Cc1ccc(C)c(SCC(=O)OCC(=O)N2CC(C)OC(C)C2)c1 (configuration not stated) | 25.5 µM | > 100 | > 100 | > 100
27 | CCOC(OCC)c1cn(Cc2ccc3c(c2)C(=O)c2ccccc2C3=O)nn1 | > 100 µM (inactive) | > 100 | > 100 | > 100
28 | O=C(NCC1COc2ccccc2O1)C1CCC(CNc2c(N3CCCCC3)c(=O)c2=O)CC1 (configuration not stated) | 24 µM (inactive) | 45.9 | 51.7 | 26.7
29 | COc1ccc2c(c1)c(C(C)=O)c(C)n2-c1ccccc1 | 0.336 µM | > 100 | > 100 | 6.92
30 | Cc1ccc(CSc2nccc(-c3c(C)nc4ccccn34)n2)cc1 | 7.91 µM | 22.2 | > 100 | > 100
31 | Cc1ccc(CC(=O)Nc2nc3ccccc3[nH]2)cc1C | 6.31 µM | > 100 | > 100 | > 25
32 | CSc1nnc(-c2ccc(NC(N)=S)cc2)o1 | 12.2 µM | > 100 | > 100 | > 100
33 | CC1=Nc2ccccc2/C1=C\c1nc(-c2ccc(F)cc2)oc1O | 3.73 µM | 93.7 | > 100 | > 100
34 | CC1(C)CC(CCNC(=O)CCl)(c2ccccc2)CCO1 (configuration not stated) | 2.38 µM | 9.13 | 34.7 | 8.14
35 | Cc1cccc(NC(=O)Cn2cnc3c(oc4ccccc43)c2=O)c1C | > 100 µM (inactive) | > 100 | > 100 | > 100
36 | Cc1cc(C)n(-c2nc3ccccc3c(=O)n2OCC(=O)N(C)C)n1 | 7.74 µM | 79.2 | > 100 | 23.3
37 | CCOc1ccc(-c2nnc(-c3cccs3)o2)cc1OCC | > 100 µM (inactive) | > 100 | > 100 | > 100
38 | Clc1ccc(/C=N/NC2=Nc3cccc4cccc2c34)cc1 | > 100 µM (inactive) | > 100 | > 100 | > 100
39 | CC(C)(C)c1nn(-c2ccccc2)c2[nH]c(=O)c(CNc3ccc4c(c3)OCCO4)cc12 | 91.2 µM (inactive) | 89.7 | > 100 | 99.7
40 | Cn1c(SCC(=O)OC2CCCCC2)nnc1-c1ccc2c(c1)OCO2 | 7.93 µM | 30.5 | 70 | 34.9

Row | Structure (SMILES) | IC50 | IC50 [1] [µM] | IC90 [2] [µM] | IC90 [3] [µM]
41 | COc1ccc(-c2cc(C(F)(F)F)nc(SCC(=O)Nc3sc4c(c3C#N)CCC4)n2)cc1 | 94 µM (inactive) | > 100 | > 100 | > 100
42 | COc1ccccc1N1CCN(/N=C/c2cccc(OC)c2OC)CC1 | > 100 µM (inactive) | > 100 | > 100 | > 100
43 | CCOC(=O)C1CCN(C(=O)c2sc3nc(C)nc(N4CCC(C)CC4)c3c2C)CC1 | 69.5 µM (inactive) | 76.5 | > 100 | > 100
44 | C=CCSc1nnc2c(n1)OC(c1c(C)[nH]n(-c3ccccc3)c1=O)Nc1ccccc1-2 (configuration not stated) | 28 µM | > 100 | > 100 | > 100
45 | O=C(c1ccc(-c2ccc(Cl)cc2)o1)N1CCN(S(=O)(=O)c2cccs2)CC1 | 95.2 µM (inactive) | > 100 | > 100 | 99.6
46 | NS(=O)(=O)c1ccc(O)c(NC(=O)c2ccc([N+](=O)[O-])o2)c1 | 12.7 µM (inactive) | 27.2 | > 100 | > 100
47 | C/C(=N/NC(=O)c1ccccn1)c1ccncc1 | 9.52 µM | 31.8 | > 100 | 23.1
48 | COc1cc(OC)cc(-c2cc3ccc(OC)cc3cn2)c1 | 29 µM (inactive) | 39 | 85.8 | 76.9
49 | Nc1nc(Sc2ncccc2[N+](=O)[O-])n[nH]1 | 21.6 µM (inactive) | 37.4 | > 50 | 77.1
50 | C=C1C(=O)O[C@@H]2[C@H]1[C@@H](OC(=O)/C(C)=C/C)C/C(C)=C\C(=O)/C=C(\C)[C@@H]2O | 1.24 µM | 18.6 | 29 | 25.2
51 | CCN(CCNC(=O)Nc1ccc(Cl)cc1)c1ccccc1 | > 100 µM (inactive) | > 100 | > 100 | > 100
52 | CCOc1ccc(-c2cnc3n2CCC3)cc1 | 35 µM | > 100 | > 100 | > 100
53 | CCOCC(=O)N1CCN(c2ccc(F)cc2)CC1 | 33.8 µM | 84.1 | > 100 | > 100
54 | O=C(CSC1CS(=O)(=O)c2cc([N+](=O)[O-])ccc21)NNC(=O)c1ccccc1 (configuration not stated) | 11.8 µM | 89 | 94.3 | 13.3
55 | Nc1n[nH]c(N)c1N=Nc1cccc(F)c1 | > 100 µM (inactive) | > 100 | > 100 | > 100
56 | COCCNC(C(=O)Nc1ccc(C)cc1[N+](=O)[O-])c1ccccc1 (configuration not stated) | 17.2 µM | 49.1 | > 100 | > 100
57 | COc1ccccc1NC(=O)Nc1nn(C)c2cccc(OC)c12 | 4.18 µM | 21.1 | > 100 | > 100
58 | Cc1nn(-c2ccccc2)c(Cl)c1CN(C(=O)CCl)c1cccc2ccccc12 | 18.7 µM (inactive) | 33 | 53.4 | 48.2
